The melting point is the temperature of the solid-liquid transition. The EC50 is the concentration at which the effect is half-maximal. The low end stands for a more potent agent, the high end for a less potent agent.

For data set [1], the system named is Leishmania donovani (MHOM-ET-67/L82 strain) amastigote forms. As to the kind of experiment: Antiinfective effect against axenic amastigotes of Leishmania donovani (Alamar Blue fluorescence). Format: cell-based. Conditions: for inhibition at 0.8 µg/mL: c = 0.8 μg/ml, read-out: Inhibition of cell growth (%) at c = 0.8 μg/ml; for inhibition at 4.8 µg/mL: c = 4.8 μg/ml, read-out: Inhibition of cell growth (%) at c = 4.8 μg/ml; for activity against Leishmania donovani (in words): summary of Table 6. As for the experimental part:
Amastigote forms of Leishmania donovani (MHOM-ET-67/L82 strain) were grown in axenic culture at 37° C. and pH 5.4 in SM medium (I. Cunningham, J. Protozool. 1977, 24, 325-329) supplemented with 10% fetal bovine serum. For the assay, amastigote forms were seeded into a microtiter plate containing two concentrations of each substance to be tested. After 72 h the dye Alamar Blue (Resazurin) was added to each culture, and the plate was incubated for two more hours. Fluorescence at 536/588 nm was measured using a microtiter plate fluorometer, and the fluorescence signal of each culture treated with a substance was compared to the fluorescence signal of untreated control cultures. The antileishmanial drug miltefosine served as a positive control.

Data set [2] has as its system DOHH-2 (aggressive B cell lymphoma) cell line. As to the kind of experiment: Cell viability, annexin V-FITC/PI flow cytometry, DOHH-2. Format: cell-based. Conditions: human tumor cell line DOHH-1-2 (aggressive B cell lymphoma), 72 h incubation. The source says:
(§1) Both cell lines of aggressive B cell lymphoma (DOHH-2, SU-DHL-4) and the multiple myeloma cell line RPMI8226 were obtained from the German Collection of Microorganisms and Cell Cultures (DSMZ) (ACC 47, ACC 495, and ACC 402, Braunschweig, Germany). The cultivation of the multiple myeloma cell line INA-6 had been previously described (R. Burger, A. Guenther, F. Bakker, M. Schmalzing, S. Bernand, W. Baum, B. Duerr, G. M. Hocke, H. Steininger, E. Gebhart, M. Gramatzki, Hematol. J. 2001, 2, 42-53). Normal mononuclear blood cells from the peripheral blood of two healthy donors were isolated by Ficoll-Hypaque density gradient centrifugation. To assess the percentage of apoptotic and viable cell fractions, a human annexin V-FITC/PI staining kit (Bender MedSystems, Vienna, Austria) was used. Cells (inoculation: 50000 cells mL^−1; incubation: 72 h) were washed in PBS, incubated for 10 min in 100 ml binding buffer (10 mM HEPES/NaOH, pH 7.4, 140 mM NaCl, 2.5 mM CaCl2) containing 2.5 ml annexin V-FITC mix and 1 mg/ml propidium iodide (PI), subsequently diluted with 300 ml binding buffer and analyzed by flow cytometry (FACSCalibur/CELLQuest; Becton Dickinson, Heidelberg, Germany). Early apoptosis is characterized by a positive annexin V-FITC staining. Cells in a late apoptotic stage lose their membrane integrity and additionally incorporate PI. […]
For orientation: A flow cytometer gives signals particle by particle.

In data set [3] the test system is SU-DHL-4 (aggressive B cell lymphoma) cell line. As to the kind of experiment: Cell viability, annexin V-FITC/PI flow cytometry, SU-DHL-4. The note with it: human tumor cell line SU-DH-4 L (aggressive B cell lymphoma), 72 h incubation. Format: cell-based.
Excerpt: as §1

The subject of data set [4] is INA-6 (multiple myeloma) cell line. As to the kind of experiment: Cell viability, annexin V-FITC/PI flow cytometry, INA-6. Format: cell-based. The note with it: human tumor cell line INA-6 (multiple myeloma); 72 h incubation.
Excerpt: as §1

The subject of data set [5] is RPMI8226 (multiple myeloma) cell line. As to the kind of experiment: Cell viability, annexin V-FITC/PI flow cytometry, RPMI8226. Format: cell-based. The note with it: RPMI-8226; human tumor cell line RPMI8226 (multiple myeloma); 72 h incubation.
Excerpt: as §1

Data set [6] concerns normal peripheral mononuclear blood cells. As to the kind of experiment: Cell viability, annexin V-FITC/PI flow cytometry, normal blood cells. It counts as cell-based, human. Conditions: FIG. 9; for toxicity against normal peripheral mononuclear blood cells: cells of two healthy donors; for 50% response (EC50) in primary mononuclear blood cells: within the preferred therapeutic concentration range. The source says: Both cell lines of aggressive B cell lymphoma (DOHH-2, SU-DHL-4) and the multiple myeloma cell line RPMI8226 were obtained from the German Collection of Microorganisms and Cell Cultures (DSMZ) (ACC 47, ACC 495, and ACC 402, Braunschweig, Germany). The cultivation of the multiple myeloma cell line INA-6 had been previously described (R. Burger, A. Guenther, F. Bakker, M. Schmalzing, S. Bernand, W. Baum, B. Duerr, G. M. Hocke, H. Steininger, E. Gebhart, M. Gramatzki, Hematol. J. 2001, 2, 42-53). Normal mononuclear blood cells from the peripheral blood of two healthy donors were isolated by Ficoll-Hypaque density gradient centrifugation. To assess the percentage of apoptotic and viable cell fractions, a human annexin V-FITC/PI staining kit (Bender MedSystems, Vienna, Austria) was used. Cells (inoculation: 50000 cells mL^−1; incubation: 72 h) were washed in PBS, incubated for 10 min in 100 ml binding buffer (10 mM HEPES/NaOH, pH 7.4, 140 mM NaCl, 2.5 mM CaCl2) containing 2.5 ml annexin V-FITC mix and 1 mg/ml propidium iodide (PI), subsequently diluted with 300 ml binding buffer and analyzed by flow cytometry (FACSCalibur/CELLQuest; Becton Dickinson, Heidelberg, Germany). Early apoptosis is characterized by a positive annexin V-FITC staining. Cells in a late apoptotic stage lose their membrane integrity and additionally incorporate PI. Viable cells are negative for both, annexin V-FITC and PI. The optical density of the controls was equaled to 100%.

The mark [7] stands for this setting: Leishmania donovani, 72 h, axenic amastigotes.

In turn, `COc1ccc2c(c1OC)C(=O)C(O)=C(C)C2=O` [Ancistroquinone C (1f), 3-Hydroxy-5,6-dimethoxy-2-methyl-1,4-naphthoquinone] registered a melting point of 218 °C.
Turning to `COc1cc(O)c2c(c1OC)C(=O)C(O)=C(C)C2=O` [Ancistroquinone D (1c), 3,8-dihydroxy-5,6-dimethoxy-2-methyl-1,4-naphthoquinone], in data set [1] (setting [7]), the inhibition at 0.8 µg/mL is 11.4% and the inhibition at 4.8 µg/mL was found to be 31.7%.
The corresponding values for `CC1=C(O)C(=O)c2c(O)c3c(c(O)c2C1=O)OCO3` [Ancistroquinone E (1d), 3,5,8-trihydroxy-2-methyl-6,7-methylenedioxy-1,4-naphthoquinone] are 19.6% and 30.5%.
As for `COc1c2c(cc3c1C(=O)C(O)=C(C)C3=O)OCO2` [Ancistroquinone F (1e), 3-hydroxy-5-methoxy-2-methyl-6,7-methylenedioxy-1,4-naphthoquinone], in data set [1] (setting [7]), the inhibition at 0.8 µg/mL stood at 0.3% and the inhibition at 4.8 µg/mL stood at 28.6%.
`CC1=C(O)C(=O)c2c(ccc(O[C@@H]3OC(CO)[C@@H](O)[C@H](O)[C@H]3O)c2O)C1=O` (stereo partly drawn) [Dioncoquinone A (1a), 3,5,6-trihydroxy-2-methyl-1,4-naphthoquinone-6-O-β-glucoside] came in with a melting point of 189 °C. Besides, in data set [1] (setting [7]), the inhibition at 0.8 µg/mL is 49.6% and the inhibition at 4.8 µg/mL is 80.3%. In addition, in data set [1], the “activity against Leishmania donovani (in words)” value was “excellent”. A half-maximal response in data set [2] (EC50) required 37 µM. The same compound gave a concentration for a half-maximal effect (EC50) in data set [3] of 32 µM. The same compound yielded an EC50 in data set [4] of 29 µM. Moreover, in data set [5], it took 58 µM to reach a half-maximal effect (EC50). In data set [6], the “toxicity against normal peripheral mononuclear blood cells” value is recorded as “non-toxic” and the “50% response (EC50) in primary mononuclear blood cells” value is reported as “neither for Dioncoquinone A (1a) or for Dioncoquinone B (1b) a 50% response was achieved”.
Regarding `CC1=C(O)C(=O)c2c(ccc(O)c2O)C1=O` [Dioncoquinone B (1b), 3,5,6-trihydroxy-2-methyl-1,4-naphthoquinone], the melting point was in the range of 216 to 217 °C. In data set [1] (setting [7]), the inhibition at 0.8 µg/mL was 79.2% and the inhibition at 4.8 µg/mL is 87.6%. Further, the “activity against Leishmania donovani (in words)” value in data set [1] is on record as “excellent”. Moreover, a half-maximal effect in data set [2] (EC50) was put at 9.4 µM. The same compound returned an EC50 in data set [3] of 7.6 µM. For the same compound, the concentration giving a half-maximal response (EC50) in data set [4] stood at 11 µM. In addition, the EC50 in data set [5] was 18 µM. Moreover, in data set [6], the “toxicity against normal peripheral mononuclear blood cells” value is given as “non-toxic” and the “50% response (EC50) in primary mononuclear blood cells” value is on record as “neither for Dioncoquinone A (1a) or for Dioncoquinone B (1b) a 50% response was achieved”.
For the compound `CCCCCCCCCCCCCCCCOP(=O)([O-])OCC[N+](C)(C)C` [Miltefosine, miltefosine, reference compound], the inhibition at 0.22 µg/mL in data set [1] (Leishmania donovani, c = 0.22 μg/ml (positive control), 72 h, axenic amastigotes, read-out: Inhibition of cell growth (%)) stood at 53%.

Values taken from patent US8877718B2, “Antiinfective and antitumoral compounds isolated from tropical lianas” (Julius-Maximilians-Universität Würzburg, priority 2008, dated 2014).
